Measurements as given in US20080070885.
Like-named read-outs stand apart in the source and are kept apart here.

SMILES	ring closure, yield of all isomers (from C=CCCS(=O)(=O)C[C@@H](C)C(=O)N[C@@H](Cc1cccc(CC=C)c1)[C@@H]1C[C@@H](C)C(=O)O1, rcm bond, benzylidene(1,3-dimesitylimidazolidin-2-ylidene)(tricyclohexylphosphine)ruthenium dichloride (Grubbs II), dichloromethane, 60.0 °C, 2.5 h) [%]	ring closure, yield of all isomers (from CCCCNC(=O)[C@H](C)C[C@H](O)[C@H](Cc1cccc(OCCCCC(=O)O)c1)NC(=O)[C@H](C)N, amide bond, BOP, diisopropylethylamine, DMF, 7.1 mM, 25.0 °C, 16.0 h) [%]
C[C@@H]1CS(=O)(=O)CCC=CCc2cccc(c2)C[C@@H]([C@@H]2C[C@@H](C)C(=O)O2)NC1=O	74.7	–
CCCCNC(=O)[C@H](C)C[C@H](O)[C@@H]1Cc2cccc(c2)OCCCCC(=O)N[C@@H](C)C(=O)N1 (relative stereo)	–	1.7
